From patent publication USRE37781E1, “Substituted cyclic carbonyls and derivatives thereof useful as retroviral protease inhibitors” (DuPont Pharmaceuticals Company, priority 1991, dated 2002)
Converted amounts (≈) assume the structure as drawn. Read-outs that look alike come from different tables or passages of the source.

Experiments:
HIV-1 (RF) in MT-2 cells = assay: microbe, parasite or virus in culture; assay type: cell-based
Procedure, shortened: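 HIV-1 laboratory strains (RF, MN, IIIB) grown in H9 cells in RPMI 1640 with 5% FCS; infections in MT-2 cells. Viral RNA quantified by hybridization with biotinylated gag/pol capture probes on streptavidin plates and alkaline phosphatase-conjugated reporter probes; BH10 gag-pol in vitro transcripts serve as RNA standards.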

[1] = target: single-chain tethered dimer of HIV protease (Human immunodeficiency virus 1, UniProt P04585); assay: biochemical; assay type: biochemical; set-up: fused on or other part: A second copy of the same protease unit is joined to the first by a short peptide tether, giving one polypeptide
[2] = HIV RNA assay, HIV-1 infected MT-2 cells, Table 2d
[3] = HIV protease inhibition, HPLC method, Table 2d, read-out: HPLC K1
[4] = Table 2d, HIV protease inhibition, HPLC method, read-out: HPLC K1
[5] = Human immunodeficiency virus 1, MT2, 48 h, Table 2d, class symbols, read-out: IC90
[6] = read-out: HPLC K1, Table 2d, class symbols
[7] = Human immunodeficiency virus 1, MT2, 48 h, Table 2d, HIV RNA assay, read-out: IC90
[8] = read-out: HPLC K1, Table 2d, HIV protease inhibition, HPLC method
[9] = Table 2d, class symbols, read-out: HPLC K1

## NC(=NO)c1cccc(CN2C(=O)N(Cc3cccc(C(N)=NO)c3)C(Cc3ccc(F)c(F)c3)C(O)C(O)C2Cc2ccc(F)c(F)c2)c1 (stereo not shown) [20AD]
HIV-1 (RF) in MT-2 cells; Table 2i
  IC90: +++ (+++=<10 μg/mL)
[1]; Table 2i, read-out: HPLC Ki
  Ki: < 0.01 µM

## O=C(NCCCCCN1C(=O)N(CCCCCNC(=O)c2cnccn2)C(Cc2ccccc2)C(O)C(O)C1Cc1ccccc1)c1cnccn1 (stereo not shown) [15FF]
HIV-1 (RF) in MT-2 cells; [2]
  IC90: ++/+ (The ++/+ is used in the cases where an IC90 was determined to be >50 μg/mL)
[1]; [3]
  Ki: > 1 µM

## O=C1N(Cc2ccc3[nH]nnc3c2)C(Cc2ccccc2)C(O)C(O)C(Cc2ccccc2)N1CC1CC1 (stereo not shown) [15DP]
HIV-1 (RF) in MT-2 cells; Table 2d, HIV RNA assay
  IC90: +++ (+++=<10 μg/mL)
[1]; [4]
  Ki: < 0.01 µM

## O=C(NCCCCCN1C(=O)N(CCCCCNC(=O)c2ccccc2F)C(Cc2ccccc2)C(O)C(O)C1Cc1ccccc1)c1ccc(F)cc1 (stereo not shown) [15FC]
HIV-1 (RF) in MT-2 cells; [2]
  IC90: ++/+ (The ++/+ is used in the cases where an IC90 was determined to be >50 μg/mL)
[1]; [3]
  Ki: 0.01 to 1 µM

## O=S1(=O)N(Cc2ccc(O)cc2)C(Cc2ccccc2)C(O)C(O)C(Cc2ccccc2)N1Cc1ccc(O)cc1 (stereo not shown) [23K]
HIV-1 (RF) in MT-2 cells; Table 2m
  IC90: +++ (+++=<10 μg/mL)
[1]; Table 2m, read-out: HPLC Ki
  Ki: < 0.01 µM

## O=C1N(Cc2cccc(OCCO)c2)C(Cc2ccccc2)C(O)C(O)C(Cc2ccccc2)N1Cc1cccc(OCCO)c1 (stereo not shown) [10Y]
HIV-1 (RF) in MT-2 cells; [5]
  IC90: < 10 mg/L
[1]; [6]
  Ki: < 0.01 µM

## O=C1N(Cc2cccc(CO)c2)C(Cc2ccc(F)c(F)c2)C(O)C(O)C(Cc2ccc(F)c(F)c2)N1Cc1cccc(CO)c1 (stereo not shown) [20AA]
HIV-1 (RF) in MT-2 cells; Table 2i
  IC90: +++ (+++=<10 μg/mL)
[1]; Table 2i, read-out: HPLC Ki
  Ki: < 0.01 µM

## O=C1NC(Cc2ccccc2)C(O)C(O)C(Cc2ccccc2)N1CCCCCCO (stereo not shown) [Example 12C]
HIV-1 (RF) in MT-2 cells; [5]
  IC90: < 10 mg/L
[1]; [6]
  Ki: < 0.01 µM

## O=C1N(CCCCCCCO)C(Cc2ccccc2)C(O)C(O)C(Cc2ccccc2)N1CCCCCCCO (stereo not shown) [Example 12P]
HIV-1 (RF) in MT-2 cells; [5]
  IC90: < 10 mg/L
[1]; [6]
  Ki: 0.01 to 1 µM

## CCNCc1cccc(C(=O)OCc2ccc(CN3C(=O)N(Cc4ccc(COC(=O)c5cccc(CNCC)c5)cc4)[C@H](Cc4ccccc4)[C@H](O)[C@@H](O)[C@H]3Cc3ccccc3)cc2)c1.Cl [29U]
HIV-1 (RF) in MT-2 cells; Table 2s
  IC90: +++ (+++=<10 μg/mL)
[1]; Table 2s, read-out: Ki (HPLC)
  Ki: > 1 µM

## CCN(CC)C(=O)c1cccc(CN2C(=O)N(Cc3cccc(C(=O)OC)c3)C(Cc3ccccc3)C(O)C(O)C2Cc2ccccc2)c1 (stereo not shown) [11T]
HIV-1 (RF) in MT-2 cells; [5]
  IC90: < 10 mg/L
[1]; [6]
  Ki: < 0.01 µM

## CCN(CC)Cc1cccc(CN2C(=O)N(Cc3cccc(CN(CC)CC)c3)C(Cc3ccccc3)C(O)C(O)C2Cc2ccccc2)c1 (stereo not shown) [Example 15XF]
HIV-1 (RF) in MT-2 cells; [7]
  IC90: < 10 mg/L
[1]; [8]
  Ki: 0.01 to 1 µM

## CCNC(=O)c1cccc(CN2C(=O)N(Cc3cccc(C(=O)OC)c3)C(Cc3ccccc3)C(O)C(O)C2Cc2ccccc2)c1 (stereo not shown) [11U]
HIV-1 (RF) in MT-2 cells; [5]
  IC90: < 10 mg/L
[1]; [6]
  Ki: < 0.01 µM

## OCc1cccc(CN2C(=S)N(Cc3cccc(CO)c3)C(Cc3ccccc3)C(O)C(O)C2Cc2ccccc2)c1 (stereo not shown) [Example 27D]
HIV-1 (RF) in MT-2 cells; Table 2q
  IC90: +++ (+++=<10 μg/mL)
[1]; Table 2q, read-out: HPLC Ki
  Ki: < 0.01 µM

## O=C1NC(Cc2ccccc2)C(O)C(O)C(Cc2ccccc2)N1 (stereo not shown) [Example 13P]
HIV-1 (RF) in MT-2 cells; Table 2d, class symbols
  IC90: + (+=>100 μg/mL)
[1]; [9]
  Ki: > 1 µM

## O=C1N(CC2CC2)C(Cc2ccccc2)C(O)C(O)C(Cc2ccccc2)N1c1ccccn1 (stereo not shown) [Example 14D]
HIV-1 (RF) in MT-2 cells; [5]
  IC90: < 10 mg/L
[1]; [6]
  Ki: 0.01 to 1 µM

## CNC(=S)NCCCCCN1C(=O)N(CCCCCNC(=S)NC)C(Cc2ccccc2)C(O)C(O)C1Cc1ccccc1 (stereo not shown) [15EV]
HIV-1 (RF) in MT-2 cells; Table 2d, HIV RNA assay
  IC90: ++/+ (The ++/+ is used in the cases where an IC90 was determined to be >50 μg/mL)
[1]; [4]
  Ki: 0.01 to 1 µM

## NC(=O)c1cccc(CN2C(=O)N(Cc3cccc(C(N)=O)c3)C(Cc3ccccc3)C(O)C(O)C2Cc2ccccc2)c1 (stereo not shown) [10G]
HIV-1 (RF) in MT-2 cells; [5]
  IC90: < 10 mg/L
[1]; [6]
  Ki: < 0.01 µM

## O=C1N(Cc2ccccc2)C(Cc2ccccc2)C(O)C(O)C(Cc2ccccc2)N1CC1CC1CO (stereo not shown) [Example 12M]
HIV-1 (RF) in MT-2 cells; [5]
  IC90: < 10 mg/L
[1]; [6]
  Ki: < 0.01 µM

## CC(O)c1cccc(CN2C(=O)N(Cc3cccc(C(C)O)c3)C(Cc3ccccc3)C(O)C(O)C2Cc2ccccc2)c1 (stereo not shown) [Example 9H]
HIV-1 (RF) in MT-2 cells; [5]
  IC90: < 10 mg/L
[1]; [6]
  Ki: 0.01 to 1 µM

## O=C1N(CCCCCCO)C(Cc2ccccc2)C(O)C(O)C(Cc2ccccc2)N1CC1CC1 (stereo not shown) [Example 12E]
HIV-1 (RF) in MT-2 cells; [5]
  IC90: < 10 mg/L
[1]; [6]
  Ki: < 0.01 µM

## CC(O)c1cccc(CN2C(=O)N(Cc3cccc(C(C)O)c3)C(Cc3ccccc3)C(O)C(O)C2Cc2ccccc2)c1 (stereo not shown) [15XD]
HIV-1 (RF) in MT-2 cells; [7]
  IC90: < 10 mg/L
[1]; [8]
  Ki: < 0.01 µM

## NC(=O)c1cc(CN2C(=O)N(Cc3ccc(F)c(C(N)=O)c3)C(Cc3ccccc3)C(O)C(O)C2Cc2ccccc2)ccc1F (stereo not shown) [15ED]
HIV-1 (RF) in MT-2 cells; Table 2d, HIV RNA assay
  IC90: ++ (++=10 to 100 μg/mL)
[1]; [4]
  Ki: < 0.01 µM

## O=C1N(CCCCCCO)C(Cc2ccccc2)C(O)C(O)C(Cc2ccccc2)N1Cc1ccc2ccccc2c1 (stereo not shown) [Example 15VQ]
HIV-1 (RF) in MT-2 cells; [5]
  IC90: < 10 mg/L
[1]; [6]
  Ki: < 0.01 µM

## N#Cc1cccc(CN2C(=O)N(Cc3cccc(C#N)c3)C(Cc3ccc(F)cc3)C(O)C(O)C2Cc2ccc(F)cc2)c1 (stereo not shown) [20O]
HIV-1 (RF) in MT-2 cells; Table 2i
  IC90: +++ (+++=<10 μg/mL)
[1]; Table 2i, read-out: HPLC Ki
  Ki: 0.01 to 1 µM

## O=Cc1cccc(CN2C(Cc3ccccc3)C(O)C(O)C(Cc3ccccc3)N(Cc3cccc(C=O)c3)S2(=O)=O)c1 (stereo not shown) [23Q]
HIV-1 (RF) in MT-2 cells; Table 2m
  IC90: +++ (+++=<10 μg/mL)
[1]; Table 2m, read-out: HPLC Ki
  Ki: < 0.01 µM

## NC(=NO)c1cccc(CN2C(=O)N(Cc3cccc(C(N)=NO)c3)C(Cc3ccccc3)C(O)C(O)C2Cc2ccccc2)c1 (stereo not shown) [20V]
HIV-1 (RF) in MT-2 cells; Table 2i
  IC90: +++ (+++=<10 μg/mL)
[1]; Table 2i, read-out: HPLC Ki
  Ki: < 0.01 µM

## O=C1N(Cc2ccc(CO)cc2)C(Cc2ccccc2)C(O)C(O)C(Cc2ccccc2)N1Cc1cccnc1 (stereo not shown) [Example 15XE]
HIV-1 (RF) in MT-2 cells; [7]
  IC90: < 10 mg/L
[1]; [8]
  Ki: < 0.01 µM

## CNC(=O)OCCCCCCN1C(=O)N(CCCCCCOC(=O)NC)C(Cc2ccccc2)C(O)C(O)C1Cc1ccccc1 (stereo not shown) [Example 12W]
HIV-1 (RF) in MT-2 cells; [5]
  IC90: 10 to 100 mg/L (≈ 15.6 to 156 µM)
[1]; [6]
  Ki: 0.01 to 1 µM

## Cl.O=C(OCc1ccc(CN2C(=O)N(Cc3ccc(COC(=O)c4cccc(CN5CCOCC5)c4)cc3)[C@H](Cc3ccccc3)[C@H](O)[C@@H](O)[C@H]2Cc2ccccc2)cc1)c1cccc(CN2CCOCC2)c1 [29S]
HIV-1 (RF) in MT-2 cells; Table 2s
  IC90: +++ (+++=<10 μg/mL)
[1]; Table 2s, read-out: Ki (HPLC)
  Ki: > 1 µM

## NC(=NO)c1cccc(CN2C(=O)N(Cc3cccc(-c4cc[nH]n4)c3)C(Cc3ccccc3)C(O)C(O)C2Cc2ccccc2)c1 (stereo not shown) [Example 15BW]
HIV-1 (RF) in MT-2 cells; [7]
  IC90: < 10 mg/L
[1]; [8]
  Ki: < 0.01 µM

## O=C1N(CCOCCO)C(Cc2ccccc2)C(O)C(O)C(Cc2ccccc2)N1CCOCCO (stereo not shown) [Example 12U]
HIV-1 (RF) in MT-2 cells; [5]
  IC90: 10 to 100 mg/L (≈ 19.9 to 199 µM)
[1]; [6]
  Ki: > 1 µM

## O=C1NC(Cc2ccccc2)C(O)C(O)C(Cc2ccccc2)N1CCCCCCCO (stereo not shown) [Example 12o]
HIV-1 (RF) in MT-2 cells; [5]
  IC90: 10 to 100 mg/L (≈ 22.7 to 227 µM)
[1]; [6]
  Ki: 0.01 to 1 µM

## Cc1cccc(CN2C(=O)N(Cc3cccc(O)c3)C(Cc3ccccc3)C(O)C(O)C2Cc2ccccc2)c1 (stereo not shown) [10J]
HIV-1 (RF) in MT-2 cells; Table 2d, class symbols
  IC90: +++ (+++=<10 μg/mL)
[1]; [9]
  Ki: < 0.01 µM

## O=C1N(Cc2cnccc2Cl)C(Cc2ccccc2)C(O)C(O)C(Cc2ccccc2)N1Cc1cnccc1Cl (stereo not shown) [Example 13Z]
HIV-1 (RF) in MT-2 cells; Table 2d, class symbols
  IC90: +++ (+++=<10 μg/mL)
[1]; [9]
  Ki: 0.01 to 1 µM
